How the values were obtained:
[1] = system: C26 colon tumor cell line; test: In vivo tumor cell killing, C26 syngeneic tumor model, cyclophosphamide with TLRL combination therapy; design: dose or concentration left out as unconfirmed; conditions: C26 cells s.c. in BALB/c mice; cyclophosphamide i.p., TLRL (resiquimod) i.v., or both; once weekly for three times; FIG. 1B
Description: FIG. 1A-D depicts evaluation of the antitumor effects of Cyclophosphamide/TLRL combination therapy in syngeneic tumor model. FIG. 1A: Scheme of therapy protocol developed to treat C26 tumor. The treatment was initiated at d10 with tumor size 100-120 mm^3 following tumor challenges, and was administered weekly for 3 cycles starting at day 10. FIG. 1B: Antitumor effects of systemic TLRL (Resiquimod) in C26 tumor model. 4×10^5 cells were inoculated subcutaneously in Balb/c mice. After the tumor was allowed to grow for 10 days, groups of 8 mice were treated with Vehicle or with intraperitoneally administration of 1 mg of Cyclophosphamide, or with intravenously administered 1.6 g of TLRL or combination therapy at the dose shown. The compound was administered weekly for three cycles. The data are represented by the median tumor volume measurements of each group. Data for each group of 8 mice are expressed as means±SD. Statistical comparisons were performed using Student's t-Test. […]
All BALB/c mice were maintained under specific pathogen free conditions and used between 6-16 weeks of age in accordance to the animal experimental guidelines set by the Institutional Animal Care and Use Committee. […] Tumor volumes were measured along three orthogonal axes (x, y, and z) and calculated as tumor volume=(xyz)/2. […]

[2] = system: CD45^+ cell infiltration in C26 tumor; test: Immunohistochemistry of CD45 positive cells in tumors of treated mice; assay type: in vivo; design: dose or concentration left out as unconfirmed; conditions: C26 tumor in Balb/c mice, tumor taken on second day of second weekly treatment, cyclophosphamide i.p., TLRL i.v., FIG. 2
Description: Histological characterization of CD45 positive cells were performed in treated mice. Tumor samples were obtained from mice treated with TLRL, cyclophosphamide or TLRL/cyclophosphamide. Histological sections were counterstained with hematoxylin and eosin (H&E).
Balb/c mice, 6-8 weeks of age, female, purchased from Vital River Beijing, C26 cells were injected s.c. in the back of anesthetized mice. Treatment was started when tumor volumes reached 100-120 mm^3, i.p. injections of cyclophosphamide or i.v. injections of 1.6 g of TLRL (resiquimod) or combination were given once weekly. On second day of second treatment, tissue specimens of the tumor from treated mice were surgically removed, fixed in 4% buffered formaldehyde for 24 h, processed into paraffin, then sectioned at 5 μm. For immunohistochemistry, tissue sections were deparaffinised followed by antigen-retrieval in Tris-EDTA buffer (0.01 M pH 9.0) at high temperature (water bath, 30 minutes at 98° C.). […] After washing with PBS three times, secondary antibody goat antibody rat HPR was applied. Standard DAB (3,3′-diaminobenzidine) kit was used for visualization and section was counterstained with H&E used according to the protocols recommended by the manufacturer.

[3] = system: IFNα inducible genes MX2, ISG15 and IRF7; test: IFNα inducible gene expression (quantitative RT-PCR) in draining lymph nodes and spleen of treated mice; assay type: in vivo; conditions: draining LNs and spleen of C26 tumor-bearing Balb/c mice, second day of second weekly treatment, FIG. 3
Description: Expression of IFNα inducible genes in dLN and spleen of treated mouse. RNA was isolated from draining lymph nodes and spleen after second treatment with TLRL or cyclophosphamide or combination therapy and relative expression of IFNα inducible genes MX2, ISG15 and IRF7 were determined by quantitative RT-PCR. Values indicate the mRNA expression of indicated IFNα inducible genes relative to housekeeping gene Actin.
Balb/c mice, 6-8 weeks of age, female, purchased from Vital River Beijing, C26 cells were injected s.c. in the back of anesthetized mice. Treatment was started when tumor volumes reached 100-120 mm^3, i.p. injections of cyclophosphamide or i.v. injections of […] of TLRL (resiquimod) or a combination of the treatments were given once weekly. On second day of second treatment, (that is, on the eighth day) draining LNs and spleen from treated mice were dissected and RNA was extracted using TRIzol reagent. After cDNA was reversed-transcribed, the quantitative Real-Time PCR was performed and IFNα inducible gene expression data were normalized relative to geometric mean of […] housekeeping genes (Actin): […]

Structure (SMILES)	effect in reducing tumor volume [1]	infiltration of CD45^+ cells in tumor microenvironment [2]	infiltration of CD45^+ cells in tumor microenvironment ([2]; listed as TLRL)	IFNα inducible gene expression (MX2, ISG15, IRF7) relative to Actin [3]	IFNα inducible gene expression (MX2, ISG15, IRF7) relative to Actin ([3]; listed as TLRL)
CCOCc1nc2c(N)nc3ccccc3c2n1CC(C)(C)O [TLRL (resiquimod), 4-amino-2-(ethoxymethyl)-a,a-di-methyl-1H-imidazo[4,5-c]quinoline-1-ethanol]	similar	significant numbers of CD45^+ cell were infiltrated	increased infiltration of activated immune cells (CD45^+)	Upregulating IFNα inducible gene clusters were observed	increased IFNα inducible gene expression
O=P1(N(CCCl)CCCl)NCCCO1 (stereo not drawn) [cyclophosphamide]	similar				
